This passage reports IC50 and inhibition results from the Kinase Knowledgebase extract (Sharma et al. 2016).

Each structure is given as a SMILES string.

The first experiment deals with MAPK14 (human) (UniProt Q16539). Description: Inhibition of MAPK14 Kinase Activity.
Sequence of MAPK14 (human) (Q16539 whole entry, looked up): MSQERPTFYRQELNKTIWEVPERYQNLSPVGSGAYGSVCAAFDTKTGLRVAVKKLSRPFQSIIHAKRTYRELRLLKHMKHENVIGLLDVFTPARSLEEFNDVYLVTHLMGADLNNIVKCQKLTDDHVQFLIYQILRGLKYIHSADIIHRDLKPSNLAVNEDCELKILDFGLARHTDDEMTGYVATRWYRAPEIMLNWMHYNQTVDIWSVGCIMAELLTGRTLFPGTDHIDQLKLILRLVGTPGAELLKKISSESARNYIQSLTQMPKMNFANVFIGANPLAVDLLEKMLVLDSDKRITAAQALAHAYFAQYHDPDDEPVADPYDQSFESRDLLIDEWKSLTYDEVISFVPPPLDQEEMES
Details: not given
`COc1cccc(NC(=O)Nc2sc(C(C)(C)C)cc2C(=O)N2CCN(CCN(C)C)C(=O)C2(C)C)c1Cl` gave a concentration for half-maximal inhibition (IC50) of under 5 µM.
`CC(C)(C)c1cc(C(=O)N2CCN(CCN3CCOCC3)C(=O)C2(C)C)c(NC(=O)Nc2cccc(Cl)c2Cl)s1` yielded a 50% inhibitory concentration (IC50) of under 5 µM.
The same measure, in the same setting: the result for `CC(C)(C)c1cc(C(=O)N2CCNC(=O)C2(C)CCO)c(NC(=O)Nc2ccc(F)c(Cl)c2Cl)s1` (configuration not stated) reads under 5 µM.
As for `CN(C)CCN1CCN(C(=O)c2cc(C(C)(C)C)sc2NC(=O)Nc2cccc(Cl)c2Cl)CC(C)(C)C1=O`, the half-maximal inhibitory concentration (IC50) is under 5 µM.
Molecule `CCC1(C)C(=O)N(CC(=O)NCCN(C)C)CCN1C(=O)c1cc(C(C)(C)C)sc1NC(=O)Nc1ccccc1C(F)(F)F` (configuration not stated) gave an IC50 of under 5 µM.
On the same count and under the same terms, the result for `CN1CCN(C(=O)c2cc(C(C)(C)C)n(C)c2NC(=O)Nc2cccc(Cl)c2Cl)C(C)(C)C1=O` reads under 5 µM; that for `CCc1ccccc1NC(=O)Nc1sc(C(C)(C)C)cc1C(=O)N1CCNC(=O)CC1`, under 5 µM; that for `CC(C)(C)c1nc(C(=O)N2CCNC(=O)CC2)c(NC(=O)Nc2cccc(Cl)c2Cl)s1`, under 5 µM.
The same measure, in the same setting: the result for `Cc1cccc(Cl)c1NC(=O)Nc1cc(C(C)(C)C)sc1C(=O)N1CCNC(=O)C1(C)C` reads under 5 µM; that for `CN(C)CCN1CCN(C(=O)c2cc(C(C)(C)C)sc2NC(=O)Nc2c(Cl)cncc2Cl)CCC1=O`, under 5 µM; that for `CC(C)(C)c1cc(NC(=O)Nc2ccc(F)c(Cl)c2Cl)c(C(=O)N2CCNC(=O)C2(C)C)[nH]1`, under 5 µM.
Same read-out and setting: under `CC(C)(C)c1cc(NC(=O)Nc2cccc(Cl)c2Cl)c(C(=O)N2CCS(=O)(=O)CC2)o1` stands under 5 µM; under `CC(C)(C)c1cc(C(=O)N2CCNC(=O)CC2)c(NC(=O)Nc2cc(F)cc(F)c2)s1`, under 5 µM; under `CC(C)(C)c1cc(NC(=O)Nc2cccc(Cl)c2Cl)c(C(=O)N2CCN(CC(N)=O)C(=O)C2(C)C)[nH]1`, under 5 µM.
`CCC1(C)C(=O)N(C)CCN1C(=O)c1cc(C(C)(C)C)sc1NC(=O)Nc1cccc(Cl)c1Cl` (configuration not stated) gave an IC50 of under 5 µM.
Same read-out and setting: the result for `CC(C)(C)c1cc(C(=O)N2CCN(CCC(=O)O)C(=O)C2(C)C)c(NC(=O)Nc2cccc(Cl)c2Cl)s1` reads under 5 µM.
For `CN(C)CCNC(=O)CN1CCN(C(=O)c2cc(C(C)(C)C)sc2NC(=O)Nc2ccc(F)c(Cl)c2Cl)C(C)(C)C1=O`, the half-inhibitory concentration (IC50) was under 5 µM.
Regarding `Cc1noc(CN2CCN(C(=O)c3cc(C(C)(C)C)sc3NC(=O)Nc3ccc(F)c(Cl)c3Cl)C(C)(C)C2=O)n1`, the IC50 is under 5 µM.

Staying with this experiment, now noted: concentration not given here.
In turn, `COCCN1CCN(C(=O)c2cc(C(C)(C)C)sc2NC(=O)Nc2cccc(Cl)c2Cl)CCC1=O` registered an inhibition of 76 to 100%.
On to `CC(C)(C)c1cc(C(=O)N2CCC(=O)N(CCC(N)=O)CC2)c(NC(=O)Nc2cccc(Cl)c2Cl)s1`, for which the inhibition was 76 to 100%.
`CC(C)(C)c1cc(C(=O)N2CCNC(=O)CC2)c(NC(=O)Nc2ccc(CN)c3ccccc23)s1` registered an inhibition of 76 to 100%.
The molecule `CC(C)(C)c1cc(C(=O)N2CCNC(=O)CC2)c(NC(=O)Nc2ccc3ocnc3c2)s1` returned an inhibition of 76 to 100%.

As a reminder, the IC50 is the midpoint of a concentration-inhibition curve. Read a high IC50 as a need for much substance. One may read the inhibition as how much of the control response was suppressed. The low end stands for a response near the control, the high end for a response far below the control.
